# Experimental data as given in paper doi:10.1101/2024.09.17.613365, “Type-II kinase inhibitors that target Parkinson’s Disease-associated LRRK2” (bioRxiv, 2025).
# Target: T1, LRRK2^KW (Homo sapiens, UniProt Q5S007)
# T1 construct: Kinase and WD40 domain construct (KW)
# Assay: not given
# Design: Differential scanning fluorometry, thermal stabilization of LRRK2 KW by compound
# Conditions: binder
# Excerpt: Next, we evaluated the potency and selectivity of these new compounds. We performed on-target screening by measuring the thermostability increase of LRRK2^KW in the presence of the new compounds using DSF (Supporting Information Table S2). We also determined the in vitro IC50 (median inhibitory concentration) values for each of the new compounds by purifying LRRK2^RCKW and measuring its kinase activity in the presence of our new inhibitors using the PhosphoSense® activity assay from AssayQuant (Supporting Information Table S2). Finally, we estimated the kinome selectivity of each compound by measuring the thermostability increase of approximately 100 representative kinases in the presence of the compounds via DSF (Supporting Information Table S2). […] Additionally, we screened a library of published type-II inhibitors to identify those that bind to LRRK2^KW (a Kinase and WD40 domain construct of LRRK2) with high affinity.
# T1 sequence (Q5S007 whole entry, the tested form may be a part): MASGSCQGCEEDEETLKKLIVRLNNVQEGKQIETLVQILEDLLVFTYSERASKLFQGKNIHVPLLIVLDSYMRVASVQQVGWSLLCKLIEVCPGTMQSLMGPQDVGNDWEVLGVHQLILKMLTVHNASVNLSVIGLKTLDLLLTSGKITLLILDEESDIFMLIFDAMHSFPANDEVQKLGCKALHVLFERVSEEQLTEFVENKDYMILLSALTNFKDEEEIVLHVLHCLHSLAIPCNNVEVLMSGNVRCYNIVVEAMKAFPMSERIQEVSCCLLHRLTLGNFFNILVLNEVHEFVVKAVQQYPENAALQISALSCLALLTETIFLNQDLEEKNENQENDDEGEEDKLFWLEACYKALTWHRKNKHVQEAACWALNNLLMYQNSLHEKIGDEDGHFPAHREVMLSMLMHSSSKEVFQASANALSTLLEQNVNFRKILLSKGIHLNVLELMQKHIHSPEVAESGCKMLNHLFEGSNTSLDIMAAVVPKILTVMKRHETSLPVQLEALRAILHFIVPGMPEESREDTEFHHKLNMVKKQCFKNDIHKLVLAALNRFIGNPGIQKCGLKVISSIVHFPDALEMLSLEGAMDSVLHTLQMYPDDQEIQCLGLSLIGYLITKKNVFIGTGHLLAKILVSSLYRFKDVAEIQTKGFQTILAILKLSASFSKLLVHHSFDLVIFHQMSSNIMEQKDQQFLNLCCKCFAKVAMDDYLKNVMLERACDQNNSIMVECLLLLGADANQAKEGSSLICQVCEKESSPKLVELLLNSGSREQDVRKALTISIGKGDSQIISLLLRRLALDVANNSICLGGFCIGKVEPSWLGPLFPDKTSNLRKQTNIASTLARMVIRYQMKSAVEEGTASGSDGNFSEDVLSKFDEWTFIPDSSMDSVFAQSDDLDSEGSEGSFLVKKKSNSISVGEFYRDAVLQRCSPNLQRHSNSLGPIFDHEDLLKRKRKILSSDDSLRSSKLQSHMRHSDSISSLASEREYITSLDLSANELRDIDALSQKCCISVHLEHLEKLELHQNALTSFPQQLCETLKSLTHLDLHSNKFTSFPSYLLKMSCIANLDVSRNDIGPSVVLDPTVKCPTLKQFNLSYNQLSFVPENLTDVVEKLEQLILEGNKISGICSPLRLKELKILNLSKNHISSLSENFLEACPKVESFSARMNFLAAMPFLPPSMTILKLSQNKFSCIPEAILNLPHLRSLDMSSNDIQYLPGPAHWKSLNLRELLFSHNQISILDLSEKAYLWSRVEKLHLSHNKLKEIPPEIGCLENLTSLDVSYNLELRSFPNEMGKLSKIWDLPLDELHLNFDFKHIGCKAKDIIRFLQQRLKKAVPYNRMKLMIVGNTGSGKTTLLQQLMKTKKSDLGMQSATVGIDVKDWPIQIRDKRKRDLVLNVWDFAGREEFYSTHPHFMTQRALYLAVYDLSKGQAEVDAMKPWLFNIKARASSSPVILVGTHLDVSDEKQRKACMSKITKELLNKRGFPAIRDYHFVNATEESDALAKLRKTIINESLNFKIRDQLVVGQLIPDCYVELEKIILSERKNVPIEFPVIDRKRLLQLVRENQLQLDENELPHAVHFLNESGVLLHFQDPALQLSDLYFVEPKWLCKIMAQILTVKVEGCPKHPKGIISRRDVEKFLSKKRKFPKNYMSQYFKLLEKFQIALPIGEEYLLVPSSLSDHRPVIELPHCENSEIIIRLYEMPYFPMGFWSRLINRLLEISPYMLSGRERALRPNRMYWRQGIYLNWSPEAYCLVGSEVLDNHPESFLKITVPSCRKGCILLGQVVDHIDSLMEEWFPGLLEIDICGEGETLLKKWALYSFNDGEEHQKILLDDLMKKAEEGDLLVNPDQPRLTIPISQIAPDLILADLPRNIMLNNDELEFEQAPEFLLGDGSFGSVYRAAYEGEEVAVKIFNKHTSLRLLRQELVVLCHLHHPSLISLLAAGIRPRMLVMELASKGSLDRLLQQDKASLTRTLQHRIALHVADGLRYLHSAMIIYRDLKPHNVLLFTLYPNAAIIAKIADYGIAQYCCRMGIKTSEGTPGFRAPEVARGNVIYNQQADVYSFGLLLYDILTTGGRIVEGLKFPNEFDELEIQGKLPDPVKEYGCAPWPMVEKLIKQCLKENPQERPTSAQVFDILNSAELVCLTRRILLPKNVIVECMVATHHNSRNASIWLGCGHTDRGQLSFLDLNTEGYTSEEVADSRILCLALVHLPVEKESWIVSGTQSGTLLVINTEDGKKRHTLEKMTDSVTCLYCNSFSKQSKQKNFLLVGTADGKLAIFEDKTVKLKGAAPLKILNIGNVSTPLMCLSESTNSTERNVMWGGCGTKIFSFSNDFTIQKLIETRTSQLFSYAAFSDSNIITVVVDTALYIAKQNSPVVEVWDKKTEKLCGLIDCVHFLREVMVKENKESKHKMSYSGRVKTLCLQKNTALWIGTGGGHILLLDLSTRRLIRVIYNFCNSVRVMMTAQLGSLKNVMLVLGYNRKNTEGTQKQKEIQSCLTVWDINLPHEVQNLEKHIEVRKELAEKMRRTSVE
row,SMILES,ΔTm [K]
1,"COc1cc(C(=O)N2CCOCC2)c(F)cc1Nc1nc(N(C)C)c2c(-c3cccc(NC(=O)Nc4cc(C(C)(C)C)nn4-c4ccc(C)cc4)c3)c[nH]c2n1 [compound 36, 1-(3-(tert-butyl)-1-(p-tolyl)-1H-pyrazol-5-yl)-3-(3-(4-(dimethylamino)-2-((5-fluoro-2-methoxy-4-(morpholine-4-carbonyl)phenyl)amino)-7H-pyrrolo[2,3-d]pyrimidin-5-yl)phenyl)urea]",0.0
2,"COc1cc(S(C)(=O)=O)ccc1Nc1nc(N(C)C)c2c(-c3cccc(NC(=O)Nc4cc(C(C)(C)C)nn4-c4ccc(C)cc4)c3)c[nH]c2n1 [compound 35, 1-(3-(tert-butyl)-1-(p-tolyl)-1H-pyrazol-5-yl)-3-(3-(4-(dimethylamino)-2-((2-methoxy-4-(methylsulfonyl)phenyl)amino)-7H-pyrrolo[2,3-d]pyrimidin-5-yl)phenyl)urea]",1.0
3,"Cc1ccc(-n2nc(C(C)(C)C)cc2NC(=O)Nc2cccc(-c3c[nH]c4nc(Cl)nc(N5CCOCC5)c34)c2)cc1 [compound 30, RN277]",18.0
4,"CCSc1nc(NC)c2c(-c3cccc(NC(=O)Nc4cc(C(C)(C)C)nn4-c4ccc(C)cc4)c3)c[nH]c2n1 [compound 32, RN341]",19.9
5,COc1cc(C(=O)N2CCOCC2)c(F)cc1Nc1nc(N(C)C)c2c(Cl)c[nH]c2n1 [compound 33],16.0
6,"COc1cc(S(C)(=O)=O)ccc1Nc1nc(N(C)C)c2c(-c3cccc(NC(=O)Nc4cc(C(C)(C)C)nn4-c4ccc5ncccc5c4)c3)c[nH]c2n1 [compound 37, 1-(3-(tert-butyl)-1-(quinolin-6-yl)-1H-pyrazol-5-yl)-3-(3-(4-(dimethylamino)-2-((2-methoxy-4-(methylsulfonyl)phenyl)amino)-7H-pyrrolo[2,3-d]pyrimidin-5-yl)phenyl)urea]",1.5

# Target: T2, leucine-rich repeat kinase 2 (LRRK2) (Homo sapiens, UniProt Q5S007)
# T2 construct: LRRK2^RCKW (ROC, COR, Kinase, WD40)
# T2 sequence (Q5S007 1327-2527 limits assumed): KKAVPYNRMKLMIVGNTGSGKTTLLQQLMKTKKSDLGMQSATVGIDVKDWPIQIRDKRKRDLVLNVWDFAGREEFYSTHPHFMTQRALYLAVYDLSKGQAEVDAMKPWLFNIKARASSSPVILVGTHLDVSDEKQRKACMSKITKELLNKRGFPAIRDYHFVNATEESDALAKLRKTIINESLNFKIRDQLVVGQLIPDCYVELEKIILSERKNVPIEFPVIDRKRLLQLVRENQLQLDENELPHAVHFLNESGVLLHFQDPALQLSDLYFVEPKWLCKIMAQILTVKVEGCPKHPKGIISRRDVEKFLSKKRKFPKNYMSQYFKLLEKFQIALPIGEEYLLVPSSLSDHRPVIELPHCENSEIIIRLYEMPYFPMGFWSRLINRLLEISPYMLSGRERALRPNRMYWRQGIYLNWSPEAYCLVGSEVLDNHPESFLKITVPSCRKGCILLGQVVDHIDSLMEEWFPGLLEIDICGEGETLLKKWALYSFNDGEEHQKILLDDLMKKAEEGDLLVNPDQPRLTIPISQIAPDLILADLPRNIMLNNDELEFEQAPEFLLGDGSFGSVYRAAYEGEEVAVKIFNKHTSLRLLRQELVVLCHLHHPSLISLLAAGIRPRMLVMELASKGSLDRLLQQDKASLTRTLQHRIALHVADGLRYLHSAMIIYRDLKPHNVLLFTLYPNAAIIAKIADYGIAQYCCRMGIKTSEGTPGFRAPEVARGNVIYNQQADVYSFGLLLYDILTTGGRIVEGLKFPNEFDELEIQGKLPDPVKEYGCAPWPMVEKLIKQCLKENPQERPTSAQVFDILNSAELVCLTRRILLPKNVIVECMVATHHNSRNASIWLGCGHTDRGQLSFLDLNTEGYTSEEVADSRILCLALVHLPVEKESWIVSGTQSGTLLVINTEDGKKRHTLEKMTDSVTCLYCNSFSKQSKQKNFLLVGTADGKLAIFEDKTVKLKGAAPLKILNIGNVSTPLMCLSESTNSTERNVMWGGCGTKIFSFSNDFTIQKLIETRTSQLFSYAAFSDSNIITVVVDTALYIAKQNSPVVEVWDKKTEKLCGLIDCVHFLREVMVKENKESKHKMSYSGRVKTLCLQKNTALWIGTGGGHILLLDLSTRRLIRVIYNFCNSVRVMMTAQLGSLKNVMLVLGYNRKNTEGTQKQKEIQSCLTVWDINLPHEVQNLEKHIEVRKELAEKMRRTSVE
# Assay: biochemical
# Design: PhosphoSense (AssayQuant) kinase activity assay with purified LRRK2 RCKW
# Conditions: not given
# Excerpt: Next, we evaluated the potency and selectivity of these new compounds. We performed on-target screening by measuring the thermostability increase of LRRK2^KW in the presence of the new compounds using DSF (Supporting Information Table S2). We also determined the in vitro IC50 (median inhibitory concentration) values for each of the new compounds by purifying LRRK2^RCKW and measuring its kinase activity in the presence of our new inhibitors using the PhosphoSense® activity assay from AssayQuant (Supporting Information Table S2). Finally, we estimated the kinome selectivity of each compound by measuring the thermostability increase of approximately 100 representative kinases in the presence of the compounds via DSF (Supporting Information Table S2).
row,SMILES,IC50 [µM]
1,"Cc1ccc(-c2c[nH]c3ncnc(N4CCOCC4)c23)cc1N(C(=O)C1(C(N)=O)CC1)c1ccc(F)cc1 [compound 7, N-(4-fluorophenyl)-N-(2-methyl-5-(4-morpholino-7H-pyrrolo[2,3-d]pyrimidin-5-yl)phenyl)cyclopropane-1,1-dicarboxamide]",10.5 ± 1.02
2,"Cc1cc(-c2c[nH]c3ncnc(N4CCOCC4)c23)cc(N(C(=O)C2(C(N)=O)CC2)c2ccc(F)cc2)c1 [compound 6, N-(4-fluorophenyl)-N-(3-methyl-5-(4-morpholino-7H-pyrrolo[2,3-d]pyrimidin-5-yl)phenyl)cyclopropane-1,1-dicarboxamide]",2.15 ± 0.076
3,"Cn1cc(N(C(=O)C2(C(N)=O)CC2)c2cccc(-c3c[nH]c4ncnc(N5CCOCC5)c34)c2)cn1 [compound 9, N-(1-methyl-1H-pyrazol-4-yl)-N-(3-(4-morpholino-7H-pyrrolo[2,3-d]pyrimidin-5-yl)phenyl)cyclopropane-1,1-dicarboxamide]",2.11 ± 1.19
4,"Cc1ccc(N(C(=O)C2(C(N)=O)CC2)c2ccc(F)cc2)cc1-c1c[nH]c2ncnc(N3CCOCC3)c12 [compound 5, N-(4-fluorophenyl)-N-(4-methyl-3-(4-morpholino-7H-pyrrolo[2,3-d]pyrimidin-5-yl)phenyl)cyclopropane-1,1-dicarboxamide]",9.58 ± 0.565
5,"NC(=O)C1(C(=O)N(c2ccc(F)cc2)c2cccc(-c3c[nH]c4ncnc(N5CCOCC5)c34)c2)CCCC1 [compound 3, N-(4-fluorophenyl)-N-(3-(4-morpholino-7H-pyrrolo[2,3-d]pyrimidin-5-yl)phenyl)cyclopentane-1,1-dicarboxamide]",0.694 ± 0.001
6,"NC(=O)C1(C(=O)N(c2ccc(F)cc2)c2cccc(-c3c[nH]c4ncnc(N5CCOCC5)c34)c2)CC1 [compound 2, N-(4-fluorophenyl)-N-(3-(4-morpholino-7H-pyrrolo[2,3-d]pyrimidin-5-yl)phenyl)cyclopropane-1,1-dicarboxamide]",0.185 ± 0.01

# Same assay, conditions: read-out: IC50 (cells in μM)
row,SMILES,IC50 [µM]
1,"Cc1cn(-c2cc(NC(=O)c3ccc(C)c(Nc4ccc5n[nH]cc5c4)c3)cc(C(F)(F)F)c2)cn1 [compound 50, 3-((2H-indazol-5-yl)amino)-4-methyl-N-(3-(4-methyl-1H-imidazol-1-yl)-5-(trifluoromethyl)phenyl)benzamide]",> 15
2,"NC(=O)C1(C(=O)N(c2ccc(F)cc2)c2ccc3cn[nH]c3c2)CC1 [compound 51, N-(4-fluorophenyl)-N-(1H-indazol-6-yl)cyclopropane-1,1-dicarboxamide]",> 15
3,"NC(=O)C1(C(=O)N(c2ccc(F)cc2)c2ccc(Nc3ccc4n[nH]cc4c3)cc2)CC1 [compound 49, N-(4-((2H-indazol-5-yl)amino)phenyl)-N-(4-fluorophenyl)cyclopropane-1,1-dicarboxamide]",> 15
4,"NC(=O)C1(C(=O)N(c2ccc(F)cc2)c2ccc(Oc3ccc4n[nH]cc4c3)cc2)CC1 [compound 48, N-(4-((2H-indazol-5-yl)oxy)phenyl)-N-(4-fluorophenyl)cyclopropane-1,1-dicarboxamide]",> 15

# Target: T1, LRRK2^KW
# Assay: not given
# Design: DSF thermal shift of purified LRRK2 KW construct with compound
# Conditions: binder
# Remark: another data set of the same source
# Excerpt: Additionally, we screened a library of published type-II inhibitors to identify those that bind to LRRK2^KW (a Kinase and WD40 domain construct of LRRK2) with high affinity. […] Next, we evaluated the potency and selectivity of these new compounds. We performed on-target screening by measuring the thermostability increase of LRRK2^KW in the presence of the new compounds using DSF (Supporting Information Table S2). We also determined the in vitro IC50 (median inhibitory concentration) values for each of the new compounds by purifying LRRK2^RCKW and measuring its kinase activity in the presence of our new inhibitors using the PhosphoSense® activity assay from AssayQuant (Supporting Information Table S2). Finally, we estimated the kinome selectivity of each compound by measuring the thermostability increase of approximately 100 representative kinases in the presence of the compounds via DSF (Supporting Information Table S2).
SMILES,∆Tm [K],dTm LRRK2(KW) [K]
"Cc1cn(-c2cc(NC(=O)c3ccc(C)c(Nc4ccc5n[nH]cc5c4)c3)cc(C(F)(F)F)c2)cn1 [compound 50, 3-((2H-indazol-5-yl)amino)-4-methyl-N-(3-(4-methyl-1H-imidazol-1-yl)-5-(trifluoromethyl)phenyl)benzamide]",1.5,–
Cc1ccc(NC(=O)c2cccc(C(C)(C)C#N)c2)cc1Nc1ccc2ncn(C)c(=O)c2c1 [AZ 628],–,-0.5
Cc1ccc(C(=O)Nc2cccc(C(F)(F)F)c2)cc1Nc1nc(-c2cccnc2)nc2c1cnn2C [NVP-BHG712],–,-0.5
CC1(C)CNc2cc(NC(=O)c3cccnc3NCc3ccncc3)ccc21 [Motesanib],–,-0.5
"NC(=O)C1(C(=O)N(c2ccc(F)cc2)c2ccc3cn[nH]c3c2)CC1 [compound 51, N-(4-fluorophenyl)-N-(1H-indazol-6-yl)cyclopropane-1,1-dicarboxamide]",1.0,–
CCN1CCN(Cc2ccc(NC(=O)c3ccc(C)c(NC(=O)c4cncc(-c5cccs5)c4)c3)cc2C(F)(F)F)CC1 [ALW-II-41-27],–,-0.5
Cc1ccc(NC(=O)c2cccc(N(C)C)c2)cc1NC(=O)c1ccc(O)cc1 [ZM336372],–,-1
"NC(=O)C1(C(=O)N(c2ccc(F)cc2)c2ccc(Nc3ccc4n[nH]cc4c3)cc2)CC1 [compound 49, N-(4-((2H-indazol-5-yl)amino)phenyl)-N-(4-fluorophenyl)cyclopropane-1,1-dicarboxamide]",2.0,–
N#CC1(c2ccc(NC(=O)c3cccnc3NCc3ccncc3)cc2)CCCC1 [Apatinib],–,-1
CNC(=O)c1cc(Oc2ccc(NC(=O)Nc3ccc(Cl)c(C(F)(F)F)c3)c(F)c2)ccn1 [Regorafinib],–,5.5
Cc1ccc(-n2nc(C(C)(C)C)cc2NC(=O)Nc2cc(COc3cccnc3)[nH]n2)cc1 [PF-4618433],–,11
COc1cc2c(Nc3ccc(NC(=O)c4ccccc4)cc3)ncnc2cc1OCCCN1CCOCC1 [ZM447439],–,6.5
"NC(=O)C1(C(=O)N(c2ccc(F)cc2)c2ccc(Oc3ccc4n[nH]cc4c3)cc2)CC1 [compound 48, N-(4-((2H-indazol-5-yl)oxy)phenyl)-N-(4-fluorophenyl)cyclopropane-1,1-dicarboxamide]",1.0,–
COc1cc(Oc2ccnc3cc(OC)c(OC)cc23)ccc1NC(=O)NC(C)c1nccs1 (stereo not shown) [KI20227],–,3
Cc1cn(-c2cc(NC(=O)c3ccc(C)c(Nc4nccc(-c5cccnc5)n4)c3)cc(C(F)(F)F)c2)cn1 [Nilotinib],–,-2.5
